Measurements published in patent US9187450B2, “Substituted pyridine compound” (Daiichi Sankyo Company, Limited, priority 2010, dated 2015).

Target: recombinant human CETP protein (Homo sapiens (Human), UniProt P11597)
Test: Test of CETP inhibition activity (in vitro, buffer-based)
Type: biochemical
Conditions: reconstituted HDL with [14C]-labeled cholesteryl ester, acceptor lipoprotein, 37° C.
Procedure: Test of CETP Inhibition Activity (In Vitro, Buffer-Based)
(1) Preparation of Reconstituted HDL
Cholesterol (1.125 μmol), phosphatidyl choline (4.5 μmol) and [^14C]-labeled cholesteryl ester (2.0 μCi; 40 μl) were taken in a glass test tube and well mixed with a vortex, and dried under a nitrogen gas current so that it formed a thin film. The obtained mixture was dissolved in ethanol (200 μl), which was designated as Solution A. A PBS solution [a mixed solution of Na2HPO4 (30 mM), KH2PO4 (8.8 mM), NaCl (60 mM) and EDTA (pH 7.4; 0.67 mM); 4 ml] was taken in a tube and the reaction solution was vigorously stirred with a vortex under a nitrogen current. The above-described Solution A was gently injected into this mixture with a syringe and the reaction solution was vigorously stirred with a vortex for 5 minutes under a nitrogen current. Sodium cholate ([…]; 0.38 ml) was added to the obtained mixture and the reaction solution was stirred for 2 minutes. ApoA-I protein (3 mg) was added to the obtained mixture and the reaction solution was stirred for 2 minutes. The obtained mixture was adjusted to 5 ml with the PBS solution and then dialyzed with the PBS solution. The obtained mixture was designated as the reconstituted HDL.
(2) Preparation of Acceptor Lipoprotein
NaBr was added to the plasma of a healthy person and the density of the mixture was adjusted to 1.019, and the mixture was subjected to density gradient centrifugation (40000 rpm, for 16 hours) to remove the fraction having a density of less than 1.019. NaBr was added to the obtained mixture and the density of the solution was adjusted to 1.063, and the solution was subjected to density gradient centrifugation (40000 rpm, 18 hours) to provide the fraction consisting of IDL (intermediate density lipoprotein) and LDL (1.019<density<1.063). The obtained fraction was dialyzed with the PBS solution. The obtained mixture was designated as the acceptor lipoprotein.
(3) Measurement of CETP Inhibition Activity
A recombinant human CETP protein (manufactured by Roar Biomedical Inc.; 4.5 ng), the acceptor lipoprotein described in (2) above (32.5 μg) and 5,5′-dithio-bis-(2-nitrobenzoic acid) (7 mM, 15 μl) were taken in a 96 well plate and the total amount of the mixture was adjusted to 48.5 μl with the PBS solution. The test compound [DMSO solution (concentration: 0.15, 0.5, 1.5, 5, 15, 50, 150 and 500 μM; 1.5 μl] was added to each well and the mixture was incubated in a thermostatic bath at 37° C. for 60 minutes. The reconstituted HDL (50 μl) described in (1) above was added to each well and the mixture was reacted in a thermostatic bath at 37° C. for 60 minutes. The 96 well plate was moved onto ice and a precipitation reagent [a mixed solution of magnesium chloride (60 mM) and 0.1% dextran sulfate [1/1 (v/v)]; 15 μl] was added to each well, and then the mixture was allowed to stand on ice for 15 minutes. The reaction solution (80 μl) in each well was moved to a filter plate and centrifuged at 1500 rpm for 1 minute, and the filtrate which passed through the filter was designated as the HDL fraction and the radioactivity thereof was measured with a scintillation counter. The percentage decrease in radioactivity in the case where the test compound was added in comparison with that in case where the test compound was not added was designated as the percentage CETP inhibition. The IC50 value was calculated from the percentage CETP inhibition.

Chain of recombinant human CETP protein (P11597 18-493): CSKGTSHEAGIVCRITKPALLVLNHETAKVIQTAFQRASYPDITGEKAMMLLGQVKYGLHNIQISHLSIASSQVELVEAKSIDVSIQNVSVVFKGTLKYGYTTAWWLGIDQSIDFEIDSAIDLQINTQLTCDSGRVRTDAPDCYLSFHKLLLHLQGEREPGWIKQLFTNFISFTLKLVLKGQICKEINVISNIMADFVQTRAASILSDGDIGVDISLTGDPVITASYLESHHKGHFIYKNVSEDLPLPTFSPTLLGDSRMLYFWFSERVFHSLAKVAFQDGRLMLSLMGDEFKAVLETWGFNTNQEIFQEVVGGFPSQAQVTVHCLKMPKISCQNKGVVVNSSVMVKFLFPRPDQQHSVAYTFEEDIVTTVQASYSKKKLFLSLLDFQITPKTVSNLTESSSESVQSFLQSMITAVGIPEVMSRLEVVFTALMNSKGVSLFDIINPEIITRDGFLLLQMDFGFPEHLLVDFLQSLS

CC1(C)Cc2nc(C3CCN(c4ncc(C#N)cn4)CC3)c([C@@H](F)c3ccc(C(F)(F)F)cc3)c(C3CCC(F)(F)CC3)c2[C@@H](O)C1 (single isomer, unassigned) [Example 17, (−)-2-[1-(5-cyanopyrimidine-2-yl)piperidin-4-yl]-4-(4,4-difluorocyclohexyl)-3-{fluoro[4-(trifluoromethyl)phenyl]methyl}-7,7-dimethyl-5,6,7,8-tetrahydroquinoline-5-ol]
IC50: 217 nM

CC1(C)Cc2nc(C3CCN(c4ncc(O)cn4)CC3)c([C@@H](F)c3ccc(C(F)(F)F)cc3)c(C3CCC(F)(F)CC3)c2[C@@H](O)C1 (single isomer, unassigned) [Example 4, (−)-4-(4,4-Difluorocyclohexyl)-3-{fluoro[4-(trifluoromethyl)phenyl]methyl}-2-[1-(5-hydroxypyrimidin-2-yl)piperidin-4-yl]-7,7-dimethyl-5,6,7,8-tetrahydroquinolin-5-ol]
IC50: 73 nM

Cc1noc(-c2cnc(N3CCC(c4nc5c(c(C6CCC(F)(F)CC6)c4[C@@H](F)c4ccc(C(F)(F)F)cc4)[C@@H](O)CC(C)(C)C5)CC3)nc2)n1 (single isomer, unassigned) [Example 35, 4-(4,4-Difluorocyclohexyl)-3-{fluoro[4-(trifluoromethyl)phenyl]methyl}-7,7-dimethyl-2-{1-[5-(3-methyl-1,2,4-oxadiazol-5-yl)pyrimidin-2-yl]piperidin-4-yl}-5,6,7,8-tetrahydroquinolin-5-ol]
IC50: 88 nM

CN(CCO)Cc1cnc(N2CCC(c3nc4c(c(C5CCC(F)(F)CC5)c3[C@@H](F)c3ccc(C(F)(F)F)cc3)[C@@H](O)CC(C)(C)C4)CC2)nc1 (single isomer, unassigned) [Example 36, (−)-4-(4,4-difluorocyclohexyl)-3-{fluoro[4-(trifluoromethyl)phenyl]methyl}-2-{1-(5-{[(2-hydroxyethyl)(methyl)amino]methyl}pyrimidine-2-yl)piperidin-4-yl}-7,7-dimethyl-5,6,7,8-tetrahydroquinoline-5-ol]
IC50: 35 nM

CC1(C)Cc2nc(C3CCN(c4ncc(OCCCCC(=O)O)cn4)CC3)c([C@@H](F)c3ccc(C(F)(F)F)cc3)c(C3CCC(F)(F)CC3)c2[C@@H](O)C1 (single isomer, unassigned) [Example 23, (−)-2-{1-[5-(4-Carboxybutoxyl)pyrimidin-2-yl]piperidin-4-yl}-4-(4,4-difluorocyclohexyl)-3-{fluoro[4-(trifluoromethyl)phenyl]methyl}-7,7-dimethyl-5,6,7,8-tetrahydroquinolin-5-ol]
IC50: 37 nM

CC1(C)Cc2nc(C3CCN(c4ncc(C(=O)N5CCOCC5)cn4)CC3)c([C@@H](F)c3ccc(C(F)(F)F)cc3)c(C3CCC(F)(F)CC3)c2[C@@H](O)C1 (single isomer, unassigned) [Example 32, 4-(4,4-Difluorocyclohexyl)-3-{fluoro[4-(trifluoromethyl)phenyl]methyl}-7,7-dimethyl-2-{1-[5-(morpholin-4-yl-carbonyl)pyrimidin-2-yl]piperidin-4-yl}-5,6,7,8-tetrahydroquinolin-5-ol]
IC50: 19 nM

CC1(C)Cc2nc(C3CCN(c4ncc(N5CC[C@H](O)C5)cn4)CC3)c([C@@H](F)c3ccc(C(F)(F)F)cc3)c(C3CCC(F)(F)CC3)c2[C@@H](O)C1 (single isomer, unassigned) [Example 57]
IC50: 33 nM

CN(CCO)c1cnc(N2CCC(c3nc4c(c(C5CCC(F)(F)CC5)c3[C@@H](F)c3ccc(C(F)(F)F)cc3)[C@@H](O)CC(C)(C)C4)CC2)nc1 (single isomer, unassigned) [Example 56, 4-(4,4-Difluorocyclohexyl)-3-{fluoro[4-(trifluoromethyl)phenyl]methyl}-2-(1-{5-[(2-hydroxyethyl)(methyl)amino]pyrimidin-2-yl}piperidin-4-yl)-7,7-dimethyl-5,6,7,8-tetrahydroquinolin-5-ol]
IC50: 28 nM

CC(C)CCOc1cnc(N2CCC(c3nc4c(c(C5CCC(F)(F)CC5)c3[C@@H](F)c3ccc(C(F)(F)F)cc3)[C@@H](O)CC(C)(C)C4)CC2)nc1 (single isomer, unassigned) [Example 22, (−)-4-(4,4-difluorocyclohexyl)-3-{fluoro[4-(trifluoromethyl)phenyl]methyl}-7,7-dimethyl-2-{1-[5-(3-methylbutoxyl)pyrimidine-2-yl]piperidin-4-yl}-5,6,7,8-tetrahydroquinoline-5-ol]
IC50: 111 nM

CC(C)COCc1cnc(N2CCC(c3nc4c(c(C5CCC(F)(F)CC5)c3[C@@H](F)c3ccc(C(F)(F)F)cc3)[C@@H](O)CC(C)(C)C4)CC2)nc1 (single isomer, unassigned) [Example 29, (−)-4-(4,4-Difluorocyclohexyl)-3-{fluoro[4-(trifluoromethyl)phenyl]methyl}-7,7-dimethyl-2-(1-{5-[(2-methylpropoxy)methyl]pyrimidin-2-yl}piperidin-4-yl)-5,6,7,8-tetrahydroquinolin-5-ol]
IC50: 62 nM

CC(C)/C=C/c1cnc(N2CCC(c3nc4c(c(C5CCC(F)(F)CC5)c3[C@@H](F)c3ccc(C(F)(F)F)cc3)[C@@H](O)CC(C)(C)C4)CC2)nc1 (single isomer, unassigned) [Example 34, (−)-4-(4,4-Difluorocyclohexyl)-3-{fluoro[4-(trifluoromethyl)phenyl]methyl}-7,7-dimethyl-2-(1-{5-[(1E)-3-methylbut-1-ene-1-yl]pyrimidin-2-yl}piperidin-4-yl)-5,6,7,8-tetrahydroquinolin-5-ol]
IC50: 54 nM

CCCCCc1cnc(N2CCC(c3nc4c(c(C5CCC(F)(F)CC5)c3[C@@H](F)c3ccc(C(F)(F)F)cc3)[C@@H](O)CC(C)(C)C4)CC2)nc1 (single isomer, unassigned) [Example 16, (−)-4-(4,4-Difluorocyclohexyl)-3-{fluoro[4-(trifluoromethyl)phenyl]methyl}-7,7-dimethyl-2-[1-(5-pentylpyrimidin-2-yl)piperidin-4-yl]-5,6,7,8-tetrahydroquinolin-5-ol]
IC50: 243 nM

CC(C)Cc1cnc(N2CCC(c3nc4c(c(C5CCC(F)(F)CC5)c3[C@@H](F)c3ccc(C(F)(F)F)cc3)[C@@H](O)CC(C)(C)C4)CC2)nc1 (single isomer, unassigned) [Example 24, (−)-4-(4,4-Difluorocyclohexyl)-3-{fluoro[4-(trifluoromethyl)phenyl]methyl}-7,7-dimethyl-2-{1-[5-(2-methylpropyl)pyrimidin-2-yl]piperidin-4-yl}-5,6,7,8-tetrahydroquinolin-5-ol]
IC50: 54 nM

CC1(C)Cc2nc(C3CCN(c4ncc(N5CCC(O)CC5)cn4)CC3)c([C@@H](F)c3ccc(C(F)(F)F)cc3)c(C3CCC(F)(F)CC3)c2[C@@H](O)C1 (single isomer, unassigned) [Example 11, (−)-4-(4,4-Difluorocyclohexyl)-3-{fluoro[4-(trifluoromethyl)phenyl]methyl}-2-{1-[5-(4-hydroxypiperidin-1-yl)pyrimidin-2-yl]piperidin-4-yl}-7,7-dimethyl-5,6,7,8-tetrahydroquinolin-5-ol]
IC50: 46 nM

CC(C)(O)COc1cnc(N2CCC(c3nc4c(c(C5CCC(F)(F)CC5)c3[C@@H](F)c3ccc(C(F)(F)F)cc3)[C@@H](O)CC(C)(C)C4)CC2)nc1 (stereo in doubt) [Example 44, 4-(4,4-Difluorocyclohexyl)-3-{fluoro[4-(trifluoromethyl)phenyl]methyl}-2-{1-[5-(2-hydroxy-2-methylpropoxy)pyrimidin-2-yl]piperidin-4-yl}-7,7-dimethyl-5,6,7,8-tetrahydroquinolin-5-ol]
IC50: 21 nM

CC1(C)Cc2nc(C3CCN(c4ncc(CCCCC(=O)O)cn4)CC3)c([C@@H](F)c3ccc(C(F)(F)F)cc3)c(C3CCC(F)(F)CC3)c2[C@@H](O)C1 (single isomer, unassigned) [Example 25, (−)-2-{1-[5-(4-carboxybutyl)pyrimidine-2-yl]piperidin-4-yl}-4-(4,4-difluorocyclohexyl)-3-{fluoro[4-(trifluoromethyl)phenyl]methyl}-7,7-dimethyl-5,6,7,8-tetrahydroquinoline-5-ol]
IC50: 19 nM
